Results published in ChEMBL document CHEMBL3992516, “Synthesis and SAR evaluation of novel thioridazine derivatives active against drug-resistant tuberculosis” (Eur J Med Chem, 2017).
Converted amounts (≈) assume the structure as drawn.

Legend:
[1] = system: Mycobacterium tuberculosis; experiment: Antimycobacterial activity against multidrug-resistant Mycobacterium tuberculosis CF81 clinical isolate incubated for 7 days measured 24 hrs post incubation by resazurin microtiter assay; type: functional
[2] = system: Mycobacterium tuberculosis; experiment: Antimycobacterial activity against multidrug-resistant Mycobacterium tuberculosis CF104 clinical isolate incubated for 7 days measured 24 hrs post incubation by resazurin microtiter assay; type: functional

Compound | MIC90 [1] | MIC90 [2]
CN1CCCCC1CCN1c2ccccc2Sc2ccc(Cl)cc21 (configuration not stated) | 12 µg/mL (≈ 33.4 µM) | 16 µg/mL (≈ 44.6 µM)
CN1CCCCC1CCn1c2ccccc2c2ccccc21 (configuration not stated) | 46 µg/mL (≈ 157 µM) | 48 µg/mL (≈ 164 µM)
c1ccc2c(c1)ccn2CCC1CCCCN1 (configuration not stated) | 4 µg/mL (≈ 17.5 µM) | 10 µg/mL (≈ 43.8 µM)
CSc1ccc2c(c1)N(CCCN1CCN(C)CC1)c1ccccc1S2 | 33 µg/mL (≈ 85.6 µM) | 23 µg/mL (≈ 59.6 µM)
CN1CCCCC1CCN1c2ccccc2Sc2ccccc21 (configuration not stated) | 58 µg/mL (≈ 179 µM) | > 64 µg/mL
c1ccc2c(c1)Sc1ccccc1N2CCC1CCCCN1 (configuration not stated) | 58 µg/mL (≈ 187 µM) | > 64 µg/mL
c1ccc2c(c1)ncn2CCC1CCCCN1 (configuration not stated) | > 100 µg/mL | > 100 µg/mL
CSc1ccc2c(c1)N(CCC1CCCCN1)c1ccccc1S2 (configuration not stated) | > 100 µg/mL | > 100 µg/mL
Clc1ccc2c(c1)N(CCC1CCCCN1)c1ccccc1S2 (configuration not stated) | 11 µg/mL (≈ 31.9 µM) | 19 µg/mL (≈ 55.1 µM)
CSc1ccc2c(c1)N(CCCN1CCN(C3C4CC5CC(C4)CC3C5)CC1)c1ccccc1S2 (configuration not stated) | 48 µg/mL (≈ 94.9 µM) | 20 µg/mL (≈ 39.5 µM)
CSc1ccc2c(c1)N(C(=O)CN1CCCCC1)c1ccccc1S2 | > 100 µg/mL | 72 µg/mL (≈ 194 µM)
CSc1ccc2c(c1)N(CCC1CCCCN1Cc1ccccc1)c1ccccc1S2 (configuration not stated) | 44 µg/mL (≈ 98.5 µM) | 32 µg/mL (≈ 71.6 µM)
NNC(=O)c1ccncc1 [ISONIAZID] | > 25 µg/mL | > 25 µg/mL
CN1CCN(CCCN2c3ccccc3Sc3ccccc32)CC1 [PERAZINE] | > 100 µg/mL | > 100 µg/mL
CO[C@H]1/C=C/O[C@@]2(C)Oc3c(C)c(O)c4c(O)c(c(/C=N/N5CCN(C)CC5)c(O)c4c3C2=O)NC(=O)/C(C)=C\C=C\[C@H](C)[C@H](O)[C@@H](C)[C@@H](O)[C@@H](C)[C@H](OC(C)=O)[C@@H]1C [RIFAMPIN] | > 25 µg/mL | > 25 µg/mL
CSc1ccc2c(c1)N(CCC1CCCCN1C)c1ccccc1S2 (configuration not stated) [THIORIDAZINE] | 10 µg/mL (≈ 27 µM) | 11 µg/mL (≈ 29.7 µM)
